Experimental data published in patent US11045519B2, “Arginine-rich polypeptide compositions and methods of using same” (UNM Rainforest Innovations, priority 2017, dated 2021).
“Also recorded” adds a separate entry of the source.

Columns and labels:
recombinant His-furin = target: T1, recombinant His-furin (Homo sapiens, UniProt P09958); assay: Furin cleavage of HPV16 L2 capsid protein (immunoblot); type: biochemical; conditions: 1 μM, 3 nM His-furin, 2 h
T1 construct: His
Description: FIG. 9. PolyR inhibits HPV16 L2 protein cleavage by furin and induces accumulation of internalized virus particles in late endosomal fraction. (A) Equal amount of HPV16 diluted in 50 μl furin assay buffer (1 mM CaCl2), 100 mM HEPES, 0.5% Triton X-100, 1 mM β-mercaptoethanol) was loaded into six tubes, […], in the presence of 1.3 μM furin inhibitor1 (Merck Millipore Corp., Burlington, Mass.), or 1 μM polyR. Samples were mixed with SDS-PAGE sample buffer and boiled before fractionation on 9% gel. Proteins were transferred onto PVDF membranes and after blocking, incubated with affinity-purified rabbit anti-HPV16 polyclonal antibody. Secondary donkey anti-rabbit horseradish peroxidase-coupled antibody was used for detection of HPV16 capsid proteins. (B) HaCaT cells grown on coverslips were incubated with HPV16 PsVs for one hour at 37° C. to initiate virus binding (and partial internalization) before adding 1 μM polyR and further incubated for seven hours. […]
Cleavage of the L2 minor capsid protein by the cellular pro-protein convertase, furin, is an essential step in infectious entry of HPVs. […] After two hours of incubation, HPV16 cleavage was assessed by immunoblotting using anti-HPV 16 polyclonal antibody. […]

HPV16 PsVs [1] = assay: HPV16 PsV binding to CHO mutant cells (L1 immunoblot); type: cell-based; conditions: 3 μM, 30 min pre-treatment
Description: FIG. 7. HPV binding and infection of CHO mutant cells in the presence of polyR. CHO mutant pgsA-745 cells (GAG deficient) and CHO mutant pgsD-677 cells (HS deficient) were grown in Ham's F12 medium supplemented with 10% fetal bovine serum and 1% Glutamax (Invitrogen, Thermo Fisher Scientific, Inc., Carlsbad, Calif.). (A) Cells were incubated with 3 μM polyR in the medium for 30 minutes before adding HPV16 PsVs and incubating at 4° C. for one hour. After extensive washing with PBS, cells were lysed and analyzed for the content of L1, as described in FIG. 4A. (B) Semi-confluent CHO-pgsA were treated with 3 μM polyR for one hour prior to adding HPV16 PsVs. Infection was scored at 24 hours post infection as described in FIG. 1. (C) Semi-confluent CHO-pgsD cells were treated with 3 μM polyR for one hour prior to adding HPV16 PsVs. Infection was scored at 24 hours post infection as described in FIG. 1.
To test the effects of polyR on cells that differentially express heparan sulfate versus heparan sulfonated proteoglycans, like glycosaminoglycans (GAGs), genetically mutant clones of Chinese hamster ovary (CHO) cell lines were used. […] First, the effect of polyR on HPV16 PsV binding to these mutant cells was measured.

HPV16 PsVs [2] = assay: Co-localization of HPV16 PsV with endosomal marker CD63 in HaCaT cells (confocal microscopy); type: cell-based; conditions: 1 μM added 1 h after PsVs, further 7 h
Description: FIG. 9. PolyR inhibits HPV16 L2 protein cleavage by furin and induces accumulation of internalized virus particles in late endosomal fraction. (A) Equal amount of HPV16 diluted in 50 μl furin assay buffer (1 mM CaCl2), 100 mM HEPES, 0.5% Triton X-100, 1 mM β-mercaptoethanol) was loaded into six tubes, and subsequently incubated for two hours at 30° C. without any inhibitor, in the presence of 1.3 μM furin inhibitor1 (Merck Millipore Corp., Burlington, Mass.), or 1 μM polyR. Samples were mixed with SDS-PAGE sample buffer and boiled before fractionation on 9% gel. Proteins were transferred onto PVDF membranes and after blocking, incubated with affinity-purified rabbit anti-HPV16 polyclonal antibody. Secondary donkey anti-rabbit horseradish peroxidase-coupled antibody was used for detection of HPV16 capsid proteins. (B) HaCaT cells grown on coverslips were incubated with HPV16 PsVs for one hour at 37° C. to initiate virus binding (and partial internalization) before adding 1 μM polyR and further incubated for seven hours. After the incubation, cells were fixed and stained for HPV16 and endogenous CD63, using primary anti-HPV16 rabbit polyclonal and anti-CD63 mouse monoclonal antibodies (Santa Cruz Biotechnology, Inc., Dallas, Tex.). […]

T1 sequence (P09958 108-794): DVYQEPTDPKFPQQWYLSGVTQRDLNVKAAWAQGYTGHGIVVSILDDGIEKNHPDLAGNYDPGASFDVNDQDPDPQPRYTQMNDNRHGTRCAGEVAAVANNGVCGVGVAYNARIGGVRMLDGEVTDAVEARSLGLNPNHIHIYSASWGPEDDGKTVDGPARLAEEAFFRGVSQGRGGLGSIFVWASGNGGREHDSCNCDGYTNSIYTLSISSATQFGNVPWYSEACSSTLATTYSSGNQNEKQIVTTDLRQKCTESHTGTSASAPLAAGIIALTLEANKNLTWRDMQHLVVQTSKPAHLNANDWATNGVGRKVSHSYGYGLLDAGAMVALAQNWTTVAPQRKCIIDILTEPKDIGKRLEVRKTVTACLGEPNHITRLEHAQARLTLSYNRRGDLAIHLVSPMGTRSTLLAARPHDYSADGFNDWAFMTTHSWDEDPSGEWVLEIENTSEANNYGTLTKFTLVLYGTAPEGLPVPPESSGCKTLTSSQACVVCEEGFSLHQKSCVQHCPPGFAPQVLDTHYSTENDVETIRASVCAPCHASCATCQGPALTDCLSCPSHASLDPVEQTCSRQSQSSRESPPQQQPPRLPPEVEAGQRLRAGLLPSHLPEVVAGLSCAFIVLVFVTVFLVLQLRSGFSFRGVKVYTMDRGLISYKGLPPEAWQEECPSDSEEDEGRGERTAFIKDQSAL

## poly-L-arginine [polyR]
Recombinant His-furin
  furin cleavage of L2 capsid protein: inhibited cleavage of the L2 capsid protein
HPV16 PsVs [1]; CHO pgsA-745 cells (GAG deficient)
  HPV16 PsV binding: did not prevent HPV binding; also recorded: increased binding was observed
HPV16 PsVs [1]; CHO pgsD-677 cells (HS deficient)
  HPV16 PsV binding: did not prevent HPV binding
HPV16 PsVs [2]
  co-localization of HPV16 and CD63: significantly increased co-localization of HPV16 and CD63
